The text below walks through data of PMC10178506, “Chemical and Biological Evaluation of Novel 1H-Chromeno[3,2-c]pyridine Derivatives as MAO Inhibitors Endowed with Potential Anticancer Activity” (International Journal of Molecular Sciences, 2023).

One series has as its system MAO B. On the set-up: method as in PMID 32716595. The following applies: read-out: MAO B IC50 (previous work); cited from earlier work.
A further series concerns AChE. Also on record: method as in PMID 32716595. Conditions: read-out: AChE IC50 (previous work); cited from earlier work.
In a further series the target is T1, human recombinant MAO A (Homo sapiens, UniProt P21397).
T1 construct: purchased Sigma Aldrich (Milan, Italy); host or cells: baculovirus-infected insect cells
T1 sequence (P21397 1-527): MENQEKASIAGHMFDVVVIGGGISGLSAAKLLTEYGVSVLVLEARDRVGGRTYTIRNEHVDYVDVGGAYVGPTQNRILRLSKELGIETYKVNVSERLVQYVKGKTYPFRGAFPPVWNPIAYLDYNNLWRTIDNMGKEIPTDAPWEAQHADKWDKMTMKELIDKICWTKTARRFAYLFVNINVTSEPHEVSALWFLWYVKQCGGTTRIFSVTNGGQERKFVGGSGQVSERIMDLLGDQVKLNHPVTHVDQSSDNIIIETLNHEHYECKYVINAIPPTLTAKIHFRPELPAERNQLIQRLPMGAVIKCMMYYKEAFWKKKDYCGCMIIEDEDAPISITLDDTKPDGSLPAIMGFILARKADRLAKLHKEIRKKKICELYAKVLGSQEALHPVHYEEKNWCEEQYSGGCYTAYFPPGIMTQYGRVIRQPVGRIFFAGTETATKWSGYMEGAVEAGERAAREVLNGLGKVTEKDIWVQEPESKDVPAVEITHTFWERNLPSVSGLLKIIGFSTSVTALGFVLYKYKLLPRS
The series is described as follows: biochemical. The format is biochemical. The following applies: read-out: hMAO-A % inhibition at 10 μM. The protocol:
(§1) Human isoforms of MAOs (from baculovirus-infected insect cells) and ChEs (human recombinant AChE and BChE from human serum), purchased from Sigma Aldrich (Milan, Italy), were used for inhibition assays. Experiments were performed in 96-well plates (Greiner Bio-One, Kremsmünster, Austria) on the Infinite M1000 Pro plate reader (Tecan, Cernusco s.N., Italy), using already published protocols.
After the addition of human recombinant MAO A (250 U/mg) or MAO B (59 U/mg) and a further 30 min of incubation, NaOH was added, and the fluorescence read at 310/400 nm excitation/emission wavelength. […] IC50 is expressed as mean ± SD of three independent measurements, each one performed in duplicate. For the kinetic study on the inhibition mechanism of MAO B, three diverse scalar concentrations of the inhibitor and seven concentrations of kynuramine were used.
(§2) The IC50 values, Michaelis–Menten curve fitting and inhibition constant (Ki) were calculated by nonlinear regression, using Prism software.

In the next series the target is T2, human recombinant MAO B (Homo sapiens, UniProt P27338).
T2 construct: purchased Sigma Aldrich (Milan, Italy); host or cells: baculovirus-infected insect cells
T2 sequence (P27338 1-520): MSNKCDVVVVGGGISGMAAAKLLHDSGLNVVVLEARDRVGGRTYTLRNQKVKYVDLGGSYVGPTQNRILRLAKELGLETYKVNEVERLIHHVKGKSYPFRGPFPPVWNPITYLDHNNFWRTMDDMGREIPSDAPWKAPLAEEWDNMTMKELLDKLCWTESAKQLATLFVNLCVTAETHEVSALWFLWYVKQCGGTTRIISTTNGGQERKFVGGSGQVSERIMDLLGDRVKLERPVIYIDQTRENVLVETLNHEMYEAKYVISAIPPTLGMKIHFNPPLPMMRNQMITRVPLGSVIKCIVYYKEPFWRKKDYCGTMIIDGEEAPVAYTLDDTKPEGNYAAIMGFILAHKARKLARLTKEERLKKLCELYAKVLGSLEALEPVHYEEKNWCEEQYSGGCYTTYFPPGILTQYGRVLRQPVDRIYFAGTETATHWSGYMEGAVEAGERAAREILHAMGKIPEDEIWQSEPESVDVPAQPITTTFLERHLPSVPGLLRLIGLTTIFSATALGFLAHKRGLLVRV
Nature of the series: biochemical. It is filed as biochemical.

The target in another series is T3, BChE from human serum (Homo sapiens, UniProt P06276).
T3 construct: ChEs (human recombinant AChE and BChE from human serum), purchased from Sigma Aldrich (Milan, Italy); purchased Sigma Aldrich (Milan, Italy); host or cells: human serum (natural source)
The series is described as follows: biochemical. The following applies: read-out: hBChE % inhibition at 10 μM; 10 μM concentration; mean ± S.D. (n = 3); n.i. = no inhibition at 10 μM. On the procedure: as §1
(§3) The inhibition of human recombinant AChE or BChE from human serum was determined by applying Ellman’s spectrophotometric method as described in previously reported protocols. The AChE activity was determined in an assay solution containing AChE (0.09 U/mL), 5,5′-dithiobis(2-nitrobenzoic acid) (i.e., the Ellman’s reagent, 0.33 mM), the test compound (10 μM concentration, or seven scalar concentrations for compounds achieving > 60% enzyme inhibition at 10 μM), in 0.1 M PBS pH 8.0. […] The BChE inhibitory activity was similarly determined by using BChE (0.09 U/mL) and butyrylthiocholine iodide (5 μM) as the substrate.
as §2

A further series has as its target T4, human recombinant AChE (Homo sapiens, UniProt P22303).
T4 construct: purchased Sigma Aldrich (Milan, Italy)
The series is described as follows: biochemical. Conditions: read-out: hAChE % inhibition at 10 μM. The protocol: as §1, §3, §2

Series [1] has as its system MCF-7, human breast carcinoma cell. Nature of the series: Antiproliferative activity, sulforhodamine-B (SRB) assay, MCF-7. The format is cell-based. Conditions: Homo sapiens, MCF7; 72 h exposure; SRB assay; mean ± S.D.; >50 = less than 50% growth inhibition at 50 μM; read-out: Antiproliferative activity IC50, MCF-7. The protocol: (§4) The SK-OV-3 ovarian cancer cell line, MCF-7 breast cancer line and HCT-116 colon cancer cell line were obtained from the National Cancer Institute, Biological Testing Branch (Frederick, MD, USA), and maintained in the logarithmic phase at 37 °C in a 5% CO2 humidified air in RPMI 1640 medium supplemented with 10% fetal calf serum, 2 mM glutamine, penicillin (100 U/mL) and streptomycin (0.1 mg/mL).
(§5) The growth inhibitory effects of compounds under investigation were compared to those of cisplatin (CDDP) and doxorubicin (DXR), used as positive controls, and evaluated by using the sulforhodamine-B (SRB) assay. Briefly, cells were seeded into 96-well microtiter plates in 100 µL of the appropriate culture medium at plating densities at 2500, 5000 and 8000 cells/well for MCF-7, HCT-116 and SKOV-3, respectively, depending upon the doubling time of individual cell lines. After seeding, microtiter plates were incubated at 37 °C for 24 h before adding the test compounds. After 24 h, several samples of each cell line were fixed in situ with cold trichloroacetic acid (TCA) to represent a measurement of the cell population at the time of compound addition. The test compounds were freshly dissolved in dimethyl sulfoxide (DMSO, 10^−2 M) and gradually diluted to different concentrations (0.79–50 µM) with a complete medium, so that the maximum DMSO/well ratio was 0.5% v/v. After the addition of different compound concentrations to triplicate wells, the plates were further incubated at 37 °C for 72 h. Cells were fixed in situ by the gentle addition of 50 µL of cold 50% w/v TCA (final concentration 10%) and incubated for 1 h at 4 °C. The supernatant was discarded, and the plates were washed with tap water and air-dried. SRB solution (100 µL) at 0.4% (w/v) in 1% acetic acid was added to each well, and the plates were incubated for 30 min at room temperature. After staining, the unbound dye was removed by washing with 1% acetic acid and the plates were air-dried. The bound stain was then solubilized with 10mM Trizma base and the absorbance was read on an automatic plate reader at 570 nm.

Series [2] relates to HCT116, colon cancer cell line. Nature of the series: Antiproliferative activity, sulforhodamine-B (SRB) assay, HCT116. Conditions: Homo sapiens, HCT-116; 72 h exposure; SRB assay; mean ± S.D.; >50 = less than 50% growth inhibition at 50 μM; read-out: Antiproliferative activity IC50, HCT116. It is filed as cell-based, human. The protocol: as §4, §5
For series [3], the system named is SK-OV-3, human ovarian carcinoma with intrinsic resistance to cisplatin. The series is described as follows: Antiproliferative activity, sulforhodamine-B (SRB) assay, SK-OV-3. The format is cell-based. The following applies: 72 h exposure, SRB assay, mean ± S.D., >50 = less than 50% growth inhibition at 50 μM, read-out: Antiproliferative activity IC50, SK-OV-3. On the procedure: as §4, §5

Structures are written as SMILES. Like-named read-outs stand apart in the source and are kept apart here.

T4 sequence (P22303 32-614): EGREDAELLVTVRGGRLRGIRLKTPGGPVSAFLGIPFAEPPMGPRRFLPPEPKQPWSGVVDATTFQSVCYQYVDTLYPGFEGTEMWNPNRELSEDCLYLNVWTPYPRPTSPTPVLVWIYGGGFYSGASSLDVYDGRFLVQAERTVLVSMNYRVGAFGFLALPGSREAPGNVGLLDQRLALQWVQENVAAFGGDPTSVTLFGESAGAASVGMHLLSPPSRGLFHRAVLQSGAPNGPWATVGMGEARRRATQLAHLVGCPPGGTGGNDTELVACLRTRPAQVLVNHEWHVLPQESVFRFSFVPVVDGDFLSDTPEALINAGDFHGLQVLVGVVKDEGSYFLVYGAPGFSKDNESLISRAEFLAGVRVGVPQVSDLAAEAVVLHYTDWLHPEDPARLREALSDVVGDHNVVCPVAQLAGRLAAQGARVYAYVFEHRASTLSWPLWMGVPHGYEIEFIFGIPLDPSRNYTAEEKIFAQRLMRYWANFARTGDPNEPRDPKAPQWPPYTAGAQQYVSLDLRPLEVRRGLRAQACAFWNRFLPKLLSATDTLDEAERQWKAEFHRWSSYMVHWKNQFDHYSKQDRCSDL
T3 sequence (P06276 29-602): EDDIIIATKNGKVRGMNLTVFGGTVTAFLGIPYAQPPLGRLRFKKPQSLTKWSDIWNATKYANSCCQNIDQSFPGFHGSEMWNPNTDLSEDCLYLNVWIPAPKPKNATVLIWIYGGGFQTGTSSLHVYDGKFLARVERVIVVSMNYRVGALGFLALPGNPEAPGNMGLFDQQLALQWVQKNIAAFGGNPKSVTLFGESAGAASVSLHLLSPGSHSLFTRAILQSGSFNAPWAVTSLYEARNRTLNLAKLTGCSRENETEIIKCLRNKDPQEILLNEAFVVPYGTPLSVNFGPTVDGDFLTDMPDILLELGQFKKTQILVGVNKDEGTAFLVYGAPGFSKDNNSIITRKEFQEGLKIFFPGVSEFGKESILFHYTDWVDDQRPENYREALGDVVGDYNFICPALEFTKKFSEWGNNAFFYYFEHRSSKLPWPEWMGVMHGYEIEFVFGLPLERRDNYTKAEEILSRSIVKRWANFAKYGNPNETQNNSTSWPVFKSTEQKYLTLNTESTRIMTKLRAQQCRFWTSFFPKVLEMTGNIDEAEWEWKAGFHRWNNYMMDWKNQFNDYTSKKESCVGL

With `CN1CCC2=C(C1)C(C[N+](=O)[O-])c1cc(Br)ccc1O2` (stereo not shown), the melting point was in the range of 140 to 142 °C.
As for `CN1CC[C@@]2(O)Oc3ccc(Cl)cc3[C@@H](O)[C@H]2C1`, the melting point was 172 to 173 °C.
Regarding `COc1cccc2c1O[C@]1(O)CCN(C)C[C@@H]1[C@@H]2O`, the melting point fell in the range of 134 to 135 °C.
With `CN1CC[C@@]2(O)Oc3ccc([N+](=O)[O-])cc3[C@@H](O)[C@H]2C1`, the melting point lay within 158 to 159 °C.
In turn, `CN1CC[C@@]2(O)Oc3ccc(Cl)cc3[C@@H](O)[C@@H]2C1` gave a melting point of 167 to 168 °C.
Still for that read-out and setting: for `COc1cccc2c1O[C@]1(O)CCN(C)C[C@H]1[C@@H]2O` the value was 148 to 149 °C.
Regarding `CCOc1cccc2c(=O)c3c(oc12)CCN(Cc1ccccc1)C3`, the IC50 in the series on MAO B is 0.89 µM.
For the molecule `CC(C)N1CCc2oc3ccc(Br)cc3c(=O)c2C1`, the 50% inhibitory concentration (IC50) is 2.23 µM with MAO B and 3.22 µM with AChE.
As for `CN1CCC2=C(C1)C(c1c[nH]c3ccc(Br)cc13)c1cc(Cl)ccc1O2` (stereo not shown) [6c, 8-Chloro-10-(5-bromo-1H-indole-3-yl)-2-methyl-2,3,4,10-tetrahydro-1H-chromeno[3,2-c]pyridine], the inhibition at 10 µM at human recombinant MAO A was found to be 29%; at BChE from human serum it was 23%; on human recombinant AChE it was 37%. Also, the inhibition constant Ki on human recombinant MAO B is 6.47 ± 0.22 µM. Besides, at human recombinant MAO B (Michaelis-Menten curves' fitting, kynuramine as the substrate), the “MAO B inhibition mechanism” value is given as “competitive”. The IC50 on human recombinant MAO B (hMAO-B IC50, mean ± S.D., determined for compounds with more than 60% inhibition at 10 μM) was 3.51 ± 0.2 µM; in series [1], 4.83 ± 0.79 µM; in [2], 9.4 ± 0.22 µM; in series [3] it was 11.3 ± 0.32 µM; in [3] (Homo sapiens, SK-OV-3, 72 h), 11 µM.
